Measured values as given in patent US5312900A, “23K protein with binding specificity for queuine” (La Jolla Cancer Research Foundation, priority 1991, dated 1994).
pIC50: −log10 of the molar value. “Also recorded” adds a separate entry of the source.

Assays:
[1] = test system: ^125 I-Queb (23K protein); assay: Binding of ^125 I-Queb to ligand-sepharose; set-up: species or system bovine; settings: for Unbound CPM: 1×10^6 cpm ^125 I-Queb incubated 2 hours with ligand-sepharose, CPM in supernatant and three PBS/Ca++; for Unbound CPM / Bound CPM: Mg++ washes, n = 3; for Bound CPM: CPM associated with sepharose after removal of supernatant and three PBS/Ca++, ± S.D.; for % Bound: share of available ^125 I-Queb bound to ligand-sepharose; for Binding of ^125 I-Queb to ligand-sepharose and its elution (in words): successive elution with 20mM EDTA, 1M NaCl, 1M urea, 8M urea
Description: Queb was isolated from the 15% SDS-PA gels by electroelution, and labelled with ^125 I according to Example IV. […] Equal quantities (1×10^6 cpm, 50 μl ) of ^125 I-Queb were incubated for 2 hours with equal aliquots (50 μl ) of ligand-sepharose. The buffer was then isolated and the sepharose was washed with PBS until less than 1×10^4 cpm were measured in the eluent.

[2] = test system: ^125 I-Queb; assay: Effect of TPA on ^125 I-Queb binding to Queuine-sepharose; set-up: species or system bovine; settings: TPA at 50% of the concentration of Queuine bound to sepharose
Description: TPA, at 50% of the concentration of the Queuine bound to sepharose, was evaluated for its ability to antagonize ^125 I-Queb binding to Queuine-sepharose. FIG. 3A illustrates the ^125 I-Queb binding without TPA and FIG. 3B illustrates the results with TPA. […] However, the elution patterns of ^125 I-Queb from the Queuine-sepharose was altered in the TPA samples.

[3] = test system: Queb; assay: Affinity chromatography of BAF proteins on ligand-sepharose with stepwise elution; type: binding, bovine; settings: third trimester BAF; elution with 20 mM EDTA, 1M NaCl, 1M urea, 8M urea
Excerpt: The isolation of Queuine binding factors was completed using affinity chromatography. CNBr-activated sepharose 4B (Pharmacia) was coupled with Queuine, guanosine or glycine using the manufacturers described procedure. The coupling ratio of Queuine to the amount of dry sepharose was 2.7 μmole to 0.1 g and the ratio of guanosine to sepharose was 1.3 μmole to 0.1 g. The procedure used targeted coupling of Queuine and guanosine at the 2-amino group of the purine ring.
The affinity-sepharose was equilibrated with phosphate buffered saline (PBS) containing 2 mM CaCl2, and MgCl2 contained in a glass pipette. The sample was allowed to flow through the column containing the affinity-sepharose, and the bound material was eluted with a successive series of PBS buffers (pH 7.5) containing: 20 mM EDTA, 1M NaCl, 1M urea, 8M urea. Once eluted, the protein was precipitated with 95% ethanol containing 0.5M potassium acetate, washed twice in 95% ethanol, and then solubilized in SDS-PAGE sample buffer, 0.25M tris-HCl, pH 6.8; 10% glycerol; 2% SDS; 0.0025% bromophenol blue.
Third trimester BAF (50 ml) was passed over a 0.4 ml Queuine-sepharose column. The column was then washed with PBS containing 2mM of CaCl2 and MgCl2 until the eluent contained<0.01 OD (280 nm). […] Eluent fractions (200 μl ) were collected and spectrophotometrically monitored (280 nm). […]

[4] = test system: HL 60 cells (ATCC No. CCL 240); assay: Cell growth of HL 60 cells; type: cell-based
[5] = test system: HL-60 cells; assay: Differentiation response of HL-60 cells; type: cell-based; settings: TPA-induced differentiation where stated

In the case of `NCC(=O)O` [Glycine], the “Unbound CPM” value [1] was 802,682 CPM, the “Bound CPM” value [1] was 70,500 ± 8,800 CPM and the “% Bound” value [1] was 8.08%. For the same compound, the “Binding of ^125 I-Queb to ligand-sepharose and its elution (in words)” value (from here on “Binding of ^125 I-Queb”) [1] was “minimal amount”.
For `CCCCCCCCCCCCCC(=O)O[C@@H]1[C@@H](C)[C@@]2(O)[C@@H](C=C(CO)C[C@]3(O)C(=O)C(C)=C[C@@H]23)[C@@H]2C(C)(C)[C@]12OC(C)=O` [TPA, 12-O-tetradecanoyl-phorbol-13-acetate], the “Effect on amount of ^125 I-Queb bound to Queuine-sepharose (in words)” value [2] was “did not quantitatively alter” and the “Effect on elution of ^125 I-Queb from Queuine-sepharose (in words)” value ([2]; without TPA 8 M urea needed) was 20 mM EDTA was able to elute and eluted under milder conditions of 20 mM EDTA.
For `Nc1nc2c(ncn2[C@@H]2O[C@H](CO)[C@@H](O)[C@H]2O)c(=O)[nH]1` [Guanosine], the “Binding of Queb from BAF to ligand-sepharose column” value [3] was “no presence of Queb that bound with high affinity; also recorded: did not bind”, the “Unbound CPM” value [1] was 843,385 CPM and the “Bound CPM” value [1] was 104,740 ± 12,885 CPM. The “% Bound” value [1] was 11.05%, the “Binding of ^125 I-Queb” value [1] was “No ^125 I-Queb was found eluted” and the “Binding of ^125 I-Queb” value ([1]; listed as guanine) was “minimal amount”.
In the case of `Nc1nc2[nH]cc(CN[C@H]3C=C[C@H](O)[C@@H]3O)c2c(=O)[nH]1` [Queuine], the “Effect on cell growth (in words)” value [4] was “both stimulate and inhibit”, the pIC50 ([4]; Homo sapiens, read-out: ID50, inhibition of cell growth) was 5.11 and the “Binding of Queb from BAF to ligand-sepharose column” value [3] was “eluted only under stringent elution conditions of 8 M urea; also recorded: high binding affinity”. For the same compound, the “Effect on differentiation response (in words)” value [5] was “modulate the ability of cells to respond to differentiation signals; also recorded: markedly sensitized HL-60 cells to a TPA-induced differentiation response; also recorded: inhibit TPA when used concurrently”, the “Unbound CPM” value [1] was 404,060 CPM and the “Bound CPM” value [1] was 851,350 ± 91,830 CPM. The “Binding of ^125 I-Queb” value [1] was “only eluted by 8M urea”.
